Laboratory results taken from patent publication US11679096B1, “Composition and method of treatment of elevated ApoE gene expression related health issues” (priority 2022, dated 2023).

Key:
[1] = tested on: ApoE gene transcripts in Alzheimer disease (AD) fibroblasts; assay: Effects of individual components on ApoE gene transcription in AD fibroblasts (young and old donors, not separated); type: cell-based, human; conditions: 1 ug/ml, overnight
[2] = tested on: ApoE gene transcripts in NHDF; assay: ApoE gene transcription (RT-PCR) in normal human dermal fibroblasts; type: cell-based; conditions: overnight
[3] = tested on: ApoE gene transcripts in lung cancer cell line A549; assay: ApoE gene transcription (RT-PCR) in lung cancer cells with IL-1β; type: cell-based, human; conditions: A549, IL-1 15 pg/ml; Mix 1 4 μg/ml, estrogen 5 nM, genistein 1 μg/ml
Description: (§1) ApoE and iNOS determination: Fibroblasts from Alzheimer disease (AD) […] (AG07887), and […] (AG08629) and/or Normal Human fibroblasts (NHDF) and/or lung cancer cell line A549 were grown on DMEM/F12 without phenol red (Gibco, USA). Media was supplemented with charcoal stripped, sterile-filtered 10% fetal bovine serum (Sigma-Millipore, USA Origen), and 1% penicillin-streptomycin.
(§2) Cells were separated and splatted in 2 cm cell culture dishes and subjected to none or treated with IL-1βat 15 pg/ml, in the presence of Basic Mix (1 μg/ml), Mix 1-1 (1 μg/ml), Mix 1-2 (2 μg/ml), genistein (1 μg/ml), and estrogen E2 (5 nM) as indicated in each experiment. Treated cells were incubated for two hours or overnight followed by RNA isolation and purification for RT-PCR analysis.
(§3) Total RNA was obtained by standard method RNeasy* Plus, (Qiagen, Germany) lysing cells with RLT Plus buffer according to the manufacturer's instructions. Equal amount of RNA extracted from each treated lysate was reverse transcribed in 20 microliters reactions with RT-QuantiTech kit (Qiagen, Germany). […] Amplification in 40 cycles and Ct quantification was carried out in CFX-Connect PCR-system from BioRad. Relative expression of the target gene data was analyzed using delta Ct method and compared to delta Ct of expression of a reference gene. […]

[4] = tested on: ApoE gene transcripts in AD fibroblasts (AG08629); assay: ApoE gene transcription (RT-PCR) in fibroblasts from old Alzheimer's disease donor; type: cell-based, human; conditions: with IL1b, Mix 1 at 1 mcg/ml, Basic Mix 1 ug/ml, estradiol 5 nM
Description: as §1, §2, §3

[5] = tested on: iNOS gene transcripts in lung cancer cell line A549; assay: iNOS expression (RT-PCR) in lung cancer cells with IL-1β; type: cell-based, human
Description: as §1, §2, §3

[6] = tested on: ApoE gene transcripts in AD fibroblasts (AG07887); assay: ApoE gene transcription (RT-PCR) in fibroblasts from young Alzheimer's disease donor; type: cell-based, human; conditions: with IL1b, Mix 1 at 1 mcg/ml, estradiol 5 nM
Description: as §1, §2, §3

[7] = tested on: MCF7 estrogen-dependent breast cancer cells; assay: In vitro MCF7 cells proliferation (E-SCREEN) assay, MTT; type: cell-based, human; conditions: β-17-estradiol 0.5 μg/ml, 6 days
Description: In vitro MCF7 cells proliferation (E-SCREEN) assay: MCF-7 cells (1×10^3 cells/well of a 96-well plate) were cultured with different micronutrients and plant extracts (0.5-5 μg/ml) with added β-17-estradiol (0.5 μg/ml) for 6 days at 37° C. Thereafter, medium in each well, including control wells, was replaced with 150 μl of tetrazolium MTT (3-(4, 5-dimethylthiazolyl-2)-2,5-diphenyltetrazolium bromide) ([…]). Wells that received DMSO only were used as negative control whereas that cells that receive only β-17-estradiol were use as positive control. Next, cells were incubated for 3 h at 37° C., the supernatant with MTT was removed, and the adherent cells were rinsed with PBS. Next, 150 μl of isopropanol was added to each well and the absorbance was measured at 570 nm using the microplate reader. Percentage of MTT reduction by metabolically active cell to purple formazan (reflecting cell proliferation rate) was calculated as following equation: Proliferation rate=[(ODsample-ODcontrol)/ODcontrol].
We used MCF7 cancer cells which are epithelial cells isolated from the breast tissue of a patient with metastatic adenocarcinoma and depend on estrogen to proliferate. […]

[8] = pro-inflammatory conditions (IL1b 15 pg/ml)
[9] = normal conditions (without IL1β)
[10] = pro-inflammatory condition (with IL1β)

O=c1c(-c2ccc(O)cc2)coc2cc(O)ccc12 [Daidzein]
effect of individual compounds on ApoE transcript [1, 8]: ApoE increasing effects

Cc1c(C)c2c(c(C)c1O)CC[C@@](C)(CCC[C@H](C)CCC[C@H](C)CCCC(C)C)O2 [Vitamin E, D-alpha-tocopherol]
effect on ApoE expression [2, 9]: moderate lowering effect

C[C@]12CC[C@@H]3c4ccc(O)cc4CC[C@H]3[C@@H]1CC[C@@H]2O [estrogen, β-17-estradiol]
effect on ApoE transcripts in human lung cancer cells [3]: inhibitory effect | decrease of ApoE transcript compared to no treatment control [4]: about 3 times | increase of iNOS expression over control ([5]; A549, IL-1 15 pg/ml, estrogen 5 nM): more than 20 times | decrease of ApoE transcription [6]: equal to control | MCF7 proliferation rate, higher compared to normal control [7]: about 1.2 folds

O=c1c(-c2ccc(O)cc2)coc2cc(O)cc(O)c12 [genistein]
effect on ApoE transcripts in human lung cancer cells [3]: inhibitory effect | lowering of iNOS transcript ([5]; A549, pro-inflammatory conditions (IL1b), 1 mcg/ml): comparable | effect of individual compounds on ApoE transcript [1, 8]: slight ApoE lowering effect

O[C@H]1[C@H](O)[C@@H](O)[C@H](O)[C@@H](O)[C@H]1O [inositol, Inositol]
effect on ApoE expression [2, 10]: comparable

O=c1c(O)c(-c2ccc(O)c(O)c2)oc2cc(O)cc(O)c12 [quercetin]
effect of individual compounds on ApoE transcript ([1]; normal conditions (without IL1b)): lowering effect | effect of individual compounds on ApoE transcript [1, 8]: ApoE increasing effects

CC(C)(CO)[C@@H](O)C(=O)NCCC(=O)O [vitamin B5, Pantothenic acid]
effect on ApoE expression [2, 9]: moderate lowering effect

phosphatidyl choline
effect on ApoE expression [2, 10]: comparable
